Values joined by “and” are separate entries in the source; they are usually repeats but may differ in a detail not shown here. Equal values may be shown once. Active and inactive are the calls of the source.
biological target: T1, Replicative DNA helicase DnaB (Mycobacterium tuberculosis, UniProt P9WMR3); experiment: DnaB intein splicing inhibitors, dose response, biochemical, cell-free fluorescence (AID 449749); format: functional
T1 sequence (P9WMR3 whole entry): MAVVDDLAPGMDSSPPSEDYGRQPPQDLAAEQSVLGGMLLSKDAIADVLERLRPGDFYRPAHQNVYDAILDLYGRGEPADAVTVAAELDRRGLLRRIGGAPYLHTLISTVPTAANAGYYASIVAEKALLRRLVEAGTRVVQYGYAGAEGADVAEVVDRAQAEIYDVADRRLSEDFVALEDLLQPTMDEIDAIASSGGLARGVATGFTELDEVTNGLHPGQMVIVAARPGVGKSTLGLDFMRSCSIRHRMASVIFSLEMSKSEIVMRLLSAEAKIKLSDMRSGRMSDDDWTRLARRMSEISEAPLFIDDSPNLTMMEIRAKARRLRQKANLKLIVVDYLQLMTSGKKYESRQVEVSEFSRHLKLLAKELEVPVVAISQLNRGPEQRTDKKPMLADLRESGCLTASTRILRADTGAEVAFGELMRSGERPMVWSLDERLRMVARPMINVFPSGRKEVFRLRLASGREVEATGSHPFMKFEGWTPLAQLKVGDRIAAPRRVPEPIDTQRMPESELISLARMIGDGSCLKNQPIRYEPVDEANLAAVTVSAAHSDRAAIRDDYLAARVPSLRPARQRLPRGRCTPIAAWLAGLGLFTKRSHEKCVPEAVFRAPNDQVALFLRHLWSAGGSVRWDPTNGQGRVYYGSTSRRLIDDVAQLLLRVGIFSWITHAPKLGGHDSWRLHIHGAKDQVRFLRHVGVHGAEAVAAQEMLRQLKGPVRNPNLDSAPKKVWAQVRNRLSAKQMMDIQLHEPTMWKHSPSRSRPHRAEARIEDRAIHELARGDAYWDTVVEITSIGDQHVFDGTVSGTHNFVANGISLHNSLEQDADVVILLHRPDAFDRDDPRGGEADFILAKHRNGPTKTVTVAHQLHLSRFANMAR

**Q.** With `COc1cc2c(cc1OC)-c1c(OC)c(OC)cc3c1[C@H](C2)N(C)CC3` as the compound, how does the AC50 read?
**A.** 3.6 µM (active)

**Q.** For `O=C1C(Cl)=C(N2CCC(C(=O)O)CC2)C(=O)c2ccccc21`, which AC50 is on record?
**A.** 19.3 µM (active)

**Q.** `CCCCCCCCCCOC(=O)Cn1c(COc2ccc(OC)cc2)[n+](C)c2ccccc21` was tested. Which AC50 did it give?
**A.** 3.97 µM (active) and 4.05 µM (active)

**Q.** For `COC1=C(c2ccccc2)C(=O)c2ccccc2C1=O`, which AC50 is on record?
**A.** 13.4 µM (active)

biological target: T2, Apoptotic protease-activating factor 1 (Homo sapiens, UniProt O14727); format: functional
T2 sequence (O14727 whole entry): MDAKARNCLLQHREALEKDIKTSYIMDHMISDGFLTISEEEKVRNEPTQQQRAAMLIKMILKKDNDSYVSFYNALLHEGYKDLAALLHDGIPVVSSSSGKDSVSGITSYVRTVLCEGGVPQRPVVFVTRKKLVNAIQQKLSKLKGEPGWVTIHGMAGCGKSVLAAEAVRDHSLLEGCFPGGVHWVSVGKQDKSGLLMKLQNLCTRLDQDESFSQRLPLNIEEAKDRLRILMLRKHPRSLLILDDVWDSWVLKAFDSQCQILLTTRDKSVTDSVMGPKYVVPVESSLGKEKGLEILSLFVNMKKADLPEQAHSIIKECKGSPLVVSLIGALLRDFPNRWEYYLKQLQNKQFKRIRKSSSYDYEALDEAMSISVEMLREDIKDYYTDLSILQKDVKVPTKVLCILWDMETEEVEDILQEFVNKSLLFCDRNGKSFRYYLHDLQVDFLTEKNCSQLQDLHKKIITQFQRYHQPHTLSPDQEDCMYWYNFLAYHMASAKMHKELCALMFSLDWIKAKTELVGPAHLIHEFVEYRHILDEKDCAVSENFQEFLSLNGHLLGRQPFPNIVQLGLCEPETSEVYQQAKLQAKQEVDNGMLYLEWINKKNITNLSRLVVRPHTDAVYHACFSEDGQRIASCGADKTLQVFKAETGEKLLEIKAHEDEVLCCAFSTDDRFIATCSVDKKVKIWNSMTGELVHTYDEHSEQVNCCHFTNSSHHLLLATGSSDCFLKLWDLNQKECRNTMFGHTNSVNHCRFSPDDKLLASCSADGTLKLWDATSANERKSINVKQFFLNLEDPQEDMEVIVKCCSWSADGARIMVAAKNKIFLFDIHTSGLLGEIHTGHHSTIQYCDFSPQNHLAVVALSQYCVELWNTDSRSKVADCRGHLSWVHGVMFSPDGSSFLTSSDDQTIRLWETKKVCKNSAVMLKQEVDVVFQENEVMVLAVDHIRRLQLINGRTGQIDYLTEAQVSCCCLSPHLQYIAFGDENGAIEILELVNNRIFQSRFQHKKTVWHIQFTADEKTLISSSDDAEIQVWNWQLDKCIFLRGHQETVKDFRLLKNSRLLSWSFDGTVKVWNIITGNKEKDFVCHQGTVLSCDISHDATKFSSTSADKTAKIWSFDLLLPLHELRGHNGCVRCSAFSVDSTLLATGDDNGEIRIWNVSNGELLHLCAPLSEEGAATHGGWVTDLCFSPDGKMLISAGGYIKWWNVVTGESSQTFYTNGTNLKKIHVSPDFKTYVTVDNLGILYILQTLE

**Q.** `COc1cc2c(cc1OC)-c1c(OC)c(OC)cc3c1[C@H](C2)N(C)CC3` was tested. Which IC50 did it give?
**A.** 2.82 µM (active)

**Q.** For `O=C1C(Cl)=C(N2CCC(C(=O)O)CC2)C(=O)c2ccccc21`, which IC50 is on record?
**A.** 13.4 µM (active)

**Q.** With `CCCCCCCCCCOC(=O)Cn1c(COc2ccc(OC)cc2)[n+](C)c2ccccc21` as the compound, how does the IC50 read?
**A.** 10.7 µM (active) and 13.4 µM (active)

biological target: T3, Protein RecA (Mycobacterium tuberculosis, UniProt P9WHJ3); experiment: Fluorescence Cell-Free Homogeneous Dose Retest to Identify Inhibitors of RecA-Intein Splicing Activity. [Related pubchem assays (depositor defined):AID2097, AID2223, AID489010, AID492950]; format: functional
T3 sequence (P9WHJ3 whole entry): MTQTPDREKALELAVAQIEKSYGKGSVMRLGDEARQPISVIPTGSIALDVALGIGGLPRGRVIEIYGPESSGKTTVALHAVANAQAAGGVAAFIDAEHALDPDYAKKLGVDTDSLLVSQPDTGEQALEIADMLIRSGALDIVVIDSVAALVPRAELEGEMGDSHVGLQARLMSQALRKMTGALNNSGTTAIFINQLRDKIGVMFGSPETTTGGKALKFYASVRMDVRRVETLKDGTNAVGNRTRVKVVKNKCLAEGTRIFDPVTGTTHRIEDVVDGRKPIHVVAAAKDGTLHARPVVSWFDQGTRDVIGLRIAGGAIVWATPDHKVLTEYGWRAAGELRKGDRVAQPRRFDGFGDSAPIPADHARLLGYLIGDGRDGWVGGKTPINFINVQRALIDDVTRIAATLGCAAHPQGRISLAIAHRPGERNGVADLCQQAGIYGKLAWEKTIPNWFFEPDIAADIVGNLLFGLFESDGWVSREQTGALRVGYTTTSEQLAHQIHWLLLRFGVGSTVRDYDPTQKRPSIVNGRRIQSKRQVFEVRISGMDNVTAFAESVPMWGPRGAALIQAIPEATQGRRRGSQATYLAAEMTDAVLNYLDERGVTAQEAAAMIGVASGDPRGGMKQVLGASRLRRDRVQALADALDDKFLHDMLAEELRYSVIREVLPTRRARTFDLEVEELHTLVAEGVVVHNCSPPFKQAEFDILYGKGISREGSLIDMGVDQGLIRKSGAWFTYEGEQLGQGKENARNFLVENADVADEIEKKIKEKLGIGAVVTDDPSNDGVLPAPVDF

**Q.** How did the EC50 turn out when `COc1cc2c(cc1OC)-c1c(OC)c(OC)cc3c1[C@H](C2)N(C)CC3` was run?
**A.** 4.91 µM (active)

**Q.** With `O=C1C(Cl)=C(N2CCC(C(=O)O)CC2)C(=O)c2ccccc21` as the compound, how does the EC50 read?
**A.** 5.78 µM (active)

**Q.** With `CCCCCCCCCCOC(=O)Cn1c(COc2ccc(OC)cc2)[n+](C)c2ccccc21` as the compound, how does the EC50 read?
**A.** 10.6 µM (active) and 11.1 µM (active)

**Q.** `COC1=C(c2ccccc2)C(=O)c2ccccc2C1=O` was tested. Which EC50 did it give?
**A.** 13.3 µM (active)

Reference: ChEMBL document CHEMBL1201862, “PubChem BioAssay data set” (2004)
